# From patent US12275719B2, “Small molecule inhibitors of galectin-3” (BRISTOL-MYERS SQUIBB COMPANY, priority 2019, dated 2025)
# Target: His-tagged recombinant human Gal-3 (hGal-3) (Homo sapiens, UniProt P17931)
# Experiment: Gal-3 HTRF assay (hGal-3 / B-ASF binding inhibition)
# Conditions: Examples 26 to 29 and 66 to 68; HTRF, 15 nM hGal-3, 15 nM B-ASF
# Description: ASSAY BUFFER Composition: 25 mM HEPES, 100 mM NaCl, 0.005% Tween 20, 0.05% BSA prepared in sterile water (all reagents from Sigma).
# Positive Control: 100% DMSO (1 μL)+His-tagged hGal-3 (20 μL)+β-ASF (20 μL)+Anti-His Terbium Antibody (5 μL)+Strep d2 Antibody (5 μL).
# Negative Control: 100% DMSO (1 μL)+His-tagged hGal-3 (20 μL)+Anti His Terbium Antibody (5 μL)+Strep d2 Aantibody (5 μL).
# PROTOCOL: The Gal-3 assays were performed in 384 white Opti plates in three replicates at room temperature with gentle shaking at 250-300 rpm From the original stocks, […] working stock concentrations of His-tagged recombinant human Gal-3 (hGal-3) and that of B-ASF were prepared. From the working stock, 20 μL of hGal-3 (15 nM) and 20 μL B-ASF (15 nM) were added to the plates. In Negative Control, only hGal-3 was added. A concentration range of 50× working stocks were prepared for the compounds in 100% DMSO. Aliquots of 1 μL of the compounds were added to the wells and pre-incubated with 20 μL hGal-3 per well for 30 minutes Then 20 μL B-ASF were added and incubated for another 1 hour. To detect the signal, 5 μL (final conc. of 1.0 nM) terbium labelled Anti-His antibody was added and incubated for 30 min followed by adding 5 μL (final conc. of 20 nM) Streptavidin d2 and incubation for another 1 hour. The assay signal was detected using HTRF screen protocol (Excitation wavelength=340 nm, emission wavelength=615 nm/665 nm) on Envision 2104 Multilabel Reader. Data analysed using Toolset and Curve Master. Results are reported in the experimental section (IC50 in μM).
# Sequence of His-tagged recombinant human Gal-3 (hGal-3) (P17931 whole entry): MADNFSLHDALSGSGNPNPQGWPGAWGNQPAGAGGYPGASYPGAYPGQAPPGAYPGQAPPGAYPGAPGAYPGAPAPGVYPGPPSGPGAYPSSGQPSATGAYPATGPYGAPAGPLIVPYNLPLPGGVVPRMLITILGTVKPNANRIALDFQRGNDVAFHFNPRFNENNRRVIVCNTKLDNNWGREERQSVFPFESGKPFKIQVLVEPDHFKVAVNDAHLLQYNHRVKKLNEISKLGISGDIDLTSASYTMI
row,IC50,SMILES
1,0.75 µM,"Cn1nc([C@@H]2O[C@H](CO)[C@H](O)[C@H](n3cc(-c4ccc(Br)c(F)c4F)nn3)[C@H]2O)n(-c2cc(Cl)ccc2C(F)(F)F)c1=S [Example 66, 5-((2S,3R,4R,5R,6R)-4-(4-(4-bromo-2,3-difluorophenyl)-1H-1,2,3-triazol-1-yl)-3,5-dihydroxy-6-(hydroxymethyl)tetrahydro-2H-pyran-2-yl)-4-(5-chloro-2-(trifluoromethyl)phenyl)-2-methyl-2,4-dihydro-3H-1,2,4-triazole-3-thione]"
2,0.0093 µM,"Cn1nc([C@@H]2O[C@H](CO)[C@H](O)[C@H](n3cc(-c4ccc(Br)c(F)c4F)nn3)[C@H]2O)n(-c2cc(Cl)ccc2C(F)(F)F)c1=S [Example 67, 5-((2S,3R,4R,5R,6R)-4-(4-(4-bromo-2,3-difluorophenyl)-1H-1,2,3-triazol-1-yl)-3,5-dihydroxy-6-(hydroxymethyl)tetrahydro-2H-pyran-2-yl)-4-(5-chloro-2-(trifluoromethyl)phenyl)-2-methyl-2,4-dihydro-3H-1,2,4-triazole-3-thione]"
3,0.025 µM,"OC[C@H]1O[C@@H](c2nncn2-c2ccc3ncsc3c2)[C@H](OCC(F)F)[C@@H](n2cc(-c3cc(F)c(Br)c(F)c3)nn2)[C@H]1O [Example 68, (2R,3R,4S,5R,6S)-6-(4-(benzo[d]thiazol-6-yl)-4H-1,2,4-triazol-3-yl)-4-(4-(4-bromo-3,5-difluorophenyl)-1H-1,2,3-triazol-1-yl)-5-(2,2-difluoroethoxy)-2-(hydroxymethyl)tetrahydro-2H-pyran-3-ol]"

# Same assay, conditions: table of Examples 30 to 65
row,IC50,SMILES
1,0.035 µM,CO[C@@H]1[C@@H](n2cc(-c3cc(F)c(Cl)c(Cl)c3)nn2)[C@@H](O)[C@@H](CO)O[C@H]1c1nncn1-c1cc(Cl)ccc1C(F)(F)F [Example 36]
2,0.0057 µM,OC[C@H]1O[C@@H](c2nncn2-c2cc(Cl)ccc2C(F)(F)F)[C@H](O)[C@@H](n2cc(-c3c(F)c(F)c(Br)c(F)c3F)nn2)[C@H]1O [Example 37]
3,0.011 µM,OC[C@H]1O[C@@H](c2nncn2-c2cc(Cl)ccc2OC(F)(F)F)[C@H](O)[C@@H](n2cc(-c3ccc(Br)c(F)c3F)nn2)[C@H]1O [Example 38]
4,0.014 µM,OC[C@H]1O[C@@H](c2nncn2-c2cc(Cl)ccc2OC(F)(F)F)[C@H](O)[C@@H](n2cc(-c3c(F)c(F)c(Br)c(F)c3F)nn2)[C@H]1O [Example 47]
5,0.014 µM,CO[C@@H]1[C@@H](n2cc(-c3ccc(Br)c(F)c3F)nn2)[C@@H](O)[C@@H](CO)O[C@H]1c1nncn1-c1cc(Cl)ccc1OC(F)(F)F [Example 48]
6,0.014 µM,OC[C@H]1O[C@@H](c2nncn2-c2cc(Cl)ccc2OC(F)(F)F)[C@H](O)[C@@H](n2cc(-c3ccc(Cl)c(F)c3F)nn2)[C@H]1O [Example 51]
7,0.0097 µM,OC[C@H]1O[C@@H](c2nncn2-c2cc(Cl)ccc2C(F)(F)F)[C@H](O)[C@@H](n2cc(-c3ccc(Cl)c(F)c3F)nn2)[C@H]1O [Example 52]
8,0.019 µM,OC[C@H]1O[C@@H](c2nncn2-c2cc(Cl)ccc2OC(F)(F)F)[C@H](OCC(F)F)[C@@H](n2cc(-c3ccc(Cl)c(F)c3F)nn2)[C@H]1O [Example 53]
9,0.012 µM,OC[C@H]1O[C@@H](c2nncn2-c2cc(Cl)ccc2C(F)(F)F)[C@H](OCC(F)F)[C@@H](n2cc(-c3ccc(Cl)c(F)c3F)nn2)[C@H]1O [Example 54]
10,0.011 µM,CO[C@@H]1[C@@H](n2cc(-c3c(F)c(F)c(Br)c(F)c3F)nn2)[C@@H](O)[C@@H](CO)O[C@H]1c1nncn1-c1cc(Cl)ccc1OC(F)(F)F [Example 55]
11,0.011 µM,CO[C@@H]1[C@@H](n2cc(-c3ccc(Cl)c(F)c3F)nn2)[C@@H](O)[C@@H](CO)O[C@H]1c1nncn1-c1cc(Cl)ccc1OC(F)(F)F [Example 56]
12,0.021 µM,OC[C@H]1O[C@@H](c2nncn2-c2cc(Cl)ccc2OC(F)(F)F)[C@H](OCC(F)F)[C@@H](n2cc(-c3ccc(Br)c(F)c3F)nn2)[C@H]1O [Example 57]
13,0.014 µM,OC[C@H]1O[C@@H](c2nncn2-c2cc(Cl)ccc2C(F)(F)F)[C@H](OCC(F)(F)F)[C@@H](n2cc(-c3ccc(Br)c(F)c3F)nn2)[C@H]1O [Example 58]
14,0.057 µM,OC[C@H]1O[C@@H](c2nncn2-c2cc(Cl)ccc2OC(F)(F)F)[C@H](OCC(F)(F)F)[C@@H](n2cc(-c3ccc(Br)c(F)c3F)nn2)[C@H]1O [Example 59]
15,0.014 µM,OC[C@H]1O[C@@H](c2nncn2-c2cc(Cl)ccc2C(F)(F)F)[C@H](OCC(F)(F)F)[C@@H](n2cc(-c3ccc(Cl)c(F)c3F)nn2)[C@H]1O [Example 60]
16,0.049 µM,OC[C@H]1O[C@@H](c2nncn2-c2cc(Cl)ccc2OC(F)(F)F)[C@H](OCC(F)(F)C(F)F)[C@@H](n2cc(-c3ccc(Br)c(F)c3F)nn2)[C@H]1O [Example 61]
17,0.04 µM,OC[C@H]1O[C@@H](c2nncn2-c2cc(Cl)ccc2C(F)(F)F)[C@H](OCC(F)F)[C@@H](n2cc(-c3ccc(Br)c(F)c3)nn2)[C@H]1O [Example 62]
18,0.078 µM,OC[C@H]1O[C@@H](c2nncn2-c2cc(Cl)ccc2C(F)(F)F)[C@H](OCC(F)(F)F)[C@@H](n2cc(-c3ccc(Br)c(F)c3)nn2)[C@H]1O [Example 63]
19,0.1 µM,OC[C@H]1O[C@@H](c2nncn2-c2cc(Cl)ccc2C(F)(F)F)[C@H](OCC(F)(F)C(F)F)[C@@H](n2cc(-c3ccc(Br)c(F)c3)nn2)[C@H]1O [Example 64]
20,0.018 µM,OC[C@H]1O[C@@H](c2nncn2-c2cc(Cl)ccc2C(F)(F)F)[C@H](OCC(F)(F)C(F)F)[C@@H](n2cc(-c3ccc(Br)c(F)c3F)nn2)[C@H]1O [Example 65]

# Same assay, conditions: table of Examples 69 to 75
row,IC50,SMILES
1,0.13 µM,OC[C@H]1O[C@@H](c2nncn2-c2cc(Cl)cc3cccnc23)[C@H](OCC(F)F)[C@@H](n2cc(-c3cc(F)c(Br)c(F)c3)nn2)[C@H]1O [Example 69]
2,0.011 µM,OC[C@H]1O[C@@H](c2nncn2-c2ccc3ncsc3c2)[C@H](OCC(F)F)[C@@H](n2cc(-c3ccc(Br)c(F)c3F)nn2)[C@H]1O [Example 70]
3,0.02 µM,Cc1nc2ccc(-n3cnnc3[C@@H]3O[C@H](CO)[C@H](O)[C@H](n4cc(-c5ccc(Br)c(F)c5F)nn4)[C@H]3OCC(F)F)cc2s1 [Example 71]
4,0.016 µM,Cc1nc2ccc(-n3cnnc3[C@@H]3O[C@H](CO)[C@H](O)[C@H](n4cc(-c5cc(F)c(Cl)c(F)c5)nn4)[C@H]3OCC(=O)O)cc2s1 [Example 72]
5,0.054 µM,CNCCN(C)C(=O)CO[C@@H]1[C@@H](n2cc(-c3cc(F)c(Cl)c(F)c3)nn2)[C@@H](O)[C@@H](CO)O[C@H]1c1nncn1-c1ccc2nc(C)sc2c1 [Example 73]
6,0.035 µM,Cc1nc2ccc(-n3cnnc3[C@@H]3O[C@H](CO)[C@H](O)[C@H](n4cc(-c5cc(F)c(Cl)c(Cl)c5)nn4)[C@H]3O)cc2s1 [Example 74]
7,0.018 µM,Cc1nc2ccc(-n3cnnc3[C@@H]3O[C@H](CO)[C@H](O)[C@H](n4cc(-c5cc(F)c(Cl)c(Cl)c5)nn4)[C@H]3OCC(=O)O)cc2s1 [Example 75]
